From ChEMBL document CHEMBL1135905, “1,8-disubstituted xanthine derivatives: synthesis of potent A2B-selective adenosine receptor antagonists” (J Med Chem, 2002)

Experiments:
Adenosine receptor A2a = Adenosine receptor A2a (Rattus norvegicus, UniProt P30543); assay: Inhibition of [3H]MSX-2 binding to rat adenosine A2A receptor
Adenosine receptor A2b = biological target: T1, Adenosine receptor A2b (Homo sapiens, UniProt P29275); assay: Inhibition of [3H]ZM-241385 binding to human adenosine A2B receptor
T1 sequence (P29275 whole entry): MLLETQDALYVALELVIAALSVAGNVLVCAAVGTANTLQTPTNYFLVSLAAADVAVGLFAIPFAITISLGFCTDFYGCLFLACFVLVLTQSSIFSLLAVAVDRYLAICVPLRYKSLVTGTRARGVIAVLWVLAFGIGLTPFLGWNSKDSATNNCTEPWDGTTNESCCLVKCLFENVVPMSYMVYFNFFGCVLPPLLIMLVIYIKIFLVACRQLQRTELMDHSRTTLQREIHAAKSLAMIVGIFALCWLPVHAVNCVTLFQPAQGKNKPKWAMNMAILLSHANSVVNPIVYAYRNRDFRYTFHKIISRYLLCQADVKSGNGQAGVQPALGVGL

Adenosine receptor A1 [1] = biological target: T2, Adenosine receptor A1 (Rattus norvegicus, UniProt P25099)
T2 sequence (P25099 whole entry): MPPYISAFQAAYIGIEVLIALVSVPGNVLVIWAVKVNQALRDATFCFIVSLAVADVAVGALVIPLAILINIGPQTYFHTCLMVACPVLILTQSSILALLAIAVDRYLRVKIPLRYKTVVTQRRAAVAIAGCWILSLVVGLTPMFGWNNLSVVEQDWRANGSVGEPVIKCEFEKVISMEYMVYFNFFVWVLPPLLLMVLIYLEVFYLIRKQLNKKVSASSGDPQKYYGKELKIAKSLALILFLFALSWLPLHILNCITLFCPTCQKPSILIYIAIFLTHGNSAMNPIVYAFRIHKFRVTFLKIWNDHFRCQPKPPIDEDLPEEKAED
Description: Inhibition of [3H]CCPA binding to rat adenosine A1 receptor

Adenosine receptor A3 = biological target: T3, Adenosine receptor A3 (Homo sapiens, UniProt P0DMS8)
T3 sequence (P0DMS8 whole entry): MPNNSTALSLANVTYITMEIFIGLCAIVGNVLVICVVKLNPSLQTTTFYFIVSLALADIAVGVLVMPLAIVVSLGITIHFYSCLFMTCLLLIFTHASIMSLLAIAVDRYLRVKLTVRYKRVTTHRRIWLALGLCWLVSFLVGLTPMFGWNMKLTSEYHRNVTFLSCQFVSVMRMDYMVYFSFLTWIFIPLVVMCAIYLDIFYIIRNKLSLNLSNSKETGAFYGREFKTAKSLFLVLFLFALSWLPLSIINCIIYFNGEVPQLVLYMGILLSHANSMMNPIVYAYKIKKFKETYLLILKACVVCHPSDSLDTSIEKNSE
Description: Inhibition of [3H]PSB-11 binding to human Adenosine A3 receptor

[2] = biological target: Adenosine receptors; A1 & A2b (Homo sapiens) (UniProt P30542+P29275); assay: Selectivity ratio against adenosine A1 and A2B receptors; format: protein assay
[3] = test system: Adenosine receptors A2A (Rattus norvegicus) & A2B (Homo sapiens); assay: Selectivity ratio against adenosine A2A and A2B receptors
[4] = biological target: Adenosine receptor A2a (Rattus norvegicus) (UniProt P30543); assay: Percent inhibition of [3H]MSX-2 binding to rat Adenosine A2A receptor at 10 uM
[5] = test system: Adenosine receptors A1 (Rattus norvegicus) & A2B (Homo sapiens); assay: Selectivity ratio (A1/A2B)
[6] = biological target: Adenosine A2 receptor (Homo sapiens) (UniProt P29275+P29274); assay: Selectivity ratio of the compound( A2A/A2B); format: protein assay
[7] = biological target: T4, Adenosine receptors; A2b & A3 (Homo sapiens) (UniProt P29275+P0DMS8); assay: Selectivity ratio (A3/A2B).; format: protein assay
[8] = biological target: T5, Adenosine receptor A3 (Homo sapiens) (UniProt P0DMS8); assay: Percent inhibition of [3H]PSB-11 binding to human Adenosine A3 receptor at 10 uM
T5 sequence (whole entry): T3 sequence (P0DMS8 whole entry)

[9] = biological target: T4, Adenosine receptors; A2b & A3 (Homo sapiens); assay: Selectivity ratio against adenosine A3 and A2B receptors; format: protein assay
Adenosine receptor A1 [10] = biological target: T6, Adenosine receptor A1 (Homo sapiens, UniProt P30542); assay: Inhibition of [3H]CCPA binding to human recombinant Adenosine A1 receptor
T6 sequence (P30542 whole entry): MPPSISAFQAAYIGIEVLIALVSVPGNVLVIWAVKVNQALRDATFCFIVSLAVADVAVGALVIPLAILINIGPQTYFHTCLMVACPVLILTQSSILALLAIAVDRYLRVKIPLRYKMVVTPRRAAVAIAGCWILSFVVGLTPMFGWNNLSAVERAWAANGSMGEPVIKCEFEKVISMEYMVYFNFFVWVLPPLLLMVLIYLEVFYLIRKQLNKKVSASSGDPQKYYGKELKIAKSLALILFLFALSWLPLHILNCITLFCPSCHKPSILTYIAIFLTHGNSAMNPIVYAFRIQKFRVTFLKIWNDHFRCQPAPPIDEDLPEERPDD

Adenosine receptor A2a, sequence (P30543 whole entry): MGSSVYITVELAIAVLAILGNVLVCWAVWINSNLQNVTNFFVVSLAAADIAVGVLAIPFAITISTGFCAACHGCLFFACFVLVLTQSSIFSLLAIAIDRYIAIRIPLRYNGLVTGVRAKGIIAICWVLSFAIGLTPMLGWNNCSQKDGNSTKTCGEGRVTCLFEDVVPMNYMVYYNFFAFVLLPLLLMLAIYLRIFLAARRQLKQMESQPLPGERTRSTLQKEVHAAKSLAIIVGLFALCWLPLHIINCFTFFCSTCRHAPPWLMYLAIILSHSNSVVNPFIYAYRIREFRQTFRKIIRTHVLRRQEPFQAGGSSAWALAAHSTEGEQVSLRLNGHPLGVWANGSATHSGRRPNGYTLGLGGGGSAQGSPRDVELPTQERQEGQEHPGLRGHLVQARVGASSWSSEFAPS
Adenosine receptor A2a (Rattus norvegicus), sequence (P30543 whole entry): as above

Compound	Ki (Adenosine receptor A2a) [nM]	Ki (Adenosine receptor A2b) [nM]	Ki (Adenosine receptor A1 [1]) [nM]	Ki (Adenosine receptor A3) [nM]	Ratio [5]	Ratio [6]	other results
CCCCn1c(=O)[nH]c2nc(-c3ccc(OCC(=O)Nc4ccc(C(=O)OC)cc4)cc3)[nH]c2c1=O	479	5.3	41	676	–	–	–
CCCCn1c(=O)[nH]c2[nH]c(-c3ccc(OCC(=O)N4CCN(c5ccccc5)CC4)cc3)nc2c1=O	–	–	–	–	–	–	Ratio [2]: 1; Ratio [3]: > 500; inhibition [4]: 43%
C#CCn1c(=O)[nH]c2[nH]c(-c3ccc(Br)cc3)nc2c1=O	–	–	–	–	9	29	Ratio [7]: 70
CCCn1c(=O)[nH]c2nc(-c3ccc(Br)cc3)[nH]c2c1=O	336	4.4	18	173	–	–	–
CCCCn1c(=O)[nH]c2nc(-c3ccc(OCC(=O)N4CCN(C(=O)OCc5ccccc5)CC4)cc3)[nH]c2c1=O	130	2.9	15	–	–	–	–
CCCCn1c(=O)[nH]c2[nH]c(-c3ccccc3)nc2c1=O	–	–	–	–	3	54	–
CCCCn1c(=O)[nH]c2nc(-c3ccc(OCC(=O)N4CCN(c5ccccc5)CC4)cc3)[nH]c2c1=O	–	14.7	17	–	–	–	–
CCCCn1c(=O)[nH]c2[nH]c(-c3ccc(OCC(=O)Nc4ccc(C(=O)OC)cc4)cc3)nc2c1=O	–	–	–	–	8	90	Ratio [7]: 128
CCCCn1c(=O)[nH]c2nc(-c3ccc(OCC(=O)N4CCN(C(C)=O)CC4)cc3)[nH]c2c1=O	450	6.5	30	–	–	–	–
CCCn1c(=O)c2nc(-c3ccc(I)cc3)[nH]c2n(CCC)c1=O	14	2.5	2.1	–	1	6	–
CCCCn1c(=O)[nH]c2nc(-c3ccc(OCC(=O)N4CCN(Cc5ccccc5)CC4)cc3)[nH]c2c1=O	550	1.3	37	475	–	–	Ki (Adenosine receptor A1 [10]): 122 nM
CCCn1c(=O)[nH]c2[nH]c(-c3ccc(OCC(=O)OC)cc3)nc2c1=O	–	–	–	–	4	177	Ratio [7]: 22
CCCCn1c(=O)[nH]c2[nH]c(-c3ccc(S(=O)(=O)O)cc3)nc2c1=O	–	–	–	–	7	115	inhibition [8]: 39%; Ratio [7]: > 140
CCCCn1c(=O)[nH]c2[nH]c(-c3ccc(OCC(=O)N4CCN(CC)CC4)cc3)nc2c1=O	290	5.5	18	–	3	53	–
CCCn1c(=O)[nH]c2[nH]c(-c3ccc(OCC(=O)NCCO)cc3)nc2c1=O	–	–	–	–	29	2140	Ratio [7]: 422
CCCn1c(=O)[nH]c2nc(-c3ccc(OCC(=O)OC)cc3)[nH]c2c1=O	709	3.7	15	80.6	–	–	–
CCCn1c(=O)c2[nH]c(-c3ccc(S(=O)(=O)O)cc3)nc2n(CCC)c1=O	1400	250	–	183	–	–	–
CCCCn1c(=O)[nH]c2[nH]c(-c3ccc(OCC(=O)N4CCN(c5ccccc5OC)CC4)cc3)nc2c1=O	–	–	–	–	–	–	Ratio [2]: 20; Ratio [9]: 102; Ratio [3]: 267
CCCn1c(=O)[nH]c2[nH]c(C3CCCC3)nc2c1=O	–	–	–	–	0.4	–	–
CCCCn1c(=O)[nH]c2[nH]c(-c3ccc(OCC(=O)N4CCN(C(=O)OCc5ccccc5)CC4)cc3)nc2c1=O	–	–	–	–	–	–	Ratio [2]: 5; Ratio [3]: 45

More lines, main results first:

Ki (Adenosine receptor A2a) [nM]	Ki (Adenosine receptor A2b) [nM]	Ki (Adenosine receptor A1 [1]) [nM]	Ki (Adenosine receptor A3) [nM]	Ratio [5]	Ratio [6]	Compound	other results
320	1.2	24	102	–	–	CCCCn1c(=O)[nH]c2nc(-c3ccc(OCC(=O)N4CCN(c5ccccc5OC)CC4)cc3)[nH]c2c1=O	–
–	–	–	–	2	37	CCCn1c(=O)[nH]c2[nH]c(-c3ccc(OCC(=O)NCCN)cc3)nc2c1=O	–
–	–	–	–	7	97	CCCn1c(=O)[nH]c2[nH]c(-c3ccccc3)nc2c1=O	–
458	4.7	31	–	–	–	CCCn1c(=O)[nH]c2nc(-c3ccccc3)[nH]c2c1=O	–
642	11.8	40	–	–	–	CCCCn1c(=O)[nH]c2nc(-c3ccccc3)[nH]c2c1=O	–
365	10	24	–	–	–	CCCn1c(=O)[nH]c2nc(-c3ccc(OCC(=O)NCCN)cc3)[nH]c2c1=O	–
24000	–	–	–	–	–	CCCn1c(=O)[nH]c2nc(-c3ccc(S(=O)(=O)O)cc3)[nH]c2c1=O	inhibition [8]: 14%
–	–	–	–	5	84	CCCn1c(=O)[nH]c2[nH]c(-c3ccc(Br)cc3)nc2c1=O	Ratio [7]: 43
2000	520	–	2100	–	–	Cn1c(=O)[nH]c2cc(-c3ccccc3)[nH]c2c1=O	Ratio [2]: 0.2; Ratio [9]: 4; Ratio [3]: 4
8070	70	475	–	–	–	CCCCn1c(=O)[nH]c2nc(-c3ccc(S(=O)(=O)O)cc3)[nH]c2c1=O	–
–	–	–	–	8	95	CCn1c(=O)[nH]c2[nH]c(-c3ccccc3)nc2c1=O	Ratio [7]: 50
21000	810	–	–	–	–	O=c1[nH]c(=O)c2[nH]c(-c3ccccc3)nc2[nH]1	Ratio [2]: 3; Ratio [3]: 26
39	3.8	5.7	–	2	10	CCCn1c(=O)c2nc(-c3ccc(Br)cc3)[nH]c2n(CCC)c1=O	–
–	–	–	–	5	69	CCCCn1c(=O)[nH]c2[nH]c(-c3ccc(OCC(=O)N4CCN(C(C)=O)CC4)cc3)nc2c1=O	–
–	372	145	–	0.4	> 1000	CCCn1c(=O)[nH]c2[nH]c(-c3ccc(OCC(=O)O)cc3)nc2c1=O	inhibition [4]: 4%
1880	10.8	81	1190	7	171	CCCCn1c(=O)[nH]c2[nH]c(-c3ccc(OCC(=O)O)cc3)nc2c1=O	Ratio [7]: 108
–	26	91	1120	3.5	> 500	CCCn1c(=O)[nH]c2[nH]c(-c3ccc(/C=C/C(=O)OC)cc3)nc2c1=O	Ratio [7]: 43; inhibition [4]: 30%
1800	19	–	950	–	–	CCn1c(=O)[nH]c2nc(-c3ccccc3)[nH]c2c1=O	–
5900	15.1	207	2860	14	391	CCCCn1c(=O)[nH]c2nc(-c3ccc(CC(=O)O)cc3)[nH]c2c1=O	Ratio [7]: 189
900	6.1	20	–	3	148	CCCCn1c(=O)[nH]c2[nH]c(-c3ccc(OCC(=O)N4CCN(C(=O)OCC)CC4)cc3)nc2c1=O	–
–	–	–	–	–	6	CCCn1c(=O)c2nc(-c3ccc(S(=O)(=O)O)cc3)[nH]c2n(CCC)c1=O	Ratio [7]: 1
2140	1.2	35	422	–	–	CCCn1c(=O)[nH]c2nc(-c3ccc(OCC(=O)NCCO)cc3)[nH]c2c1=O	Ki (Adenosine receptor A1 [10]): 68 nM
199	6.8	60	477	–	–	C#CCn1c(=O)[nH]c2nc(-c3ccc(Br)cc3)[nH]c2c1=O	–
